Data taken from US20250250265A1, “BENZOTHIAZOLE-PHENYLSULFONYL-PIPERIDINE ANALOGS AS ACTIVATORS OF NACYLPHOSPHATIDYLETHANOLAMINE HYDROLYZING PHOSPHOLIPASE D” (priority 2022, published 2025).
“Also recorded” adds a separate entry of the source.

Tests used:
[1] = biological target: T1, Fatty Acid Amide Hydrolase (FAAH) (Homo sapiens, UniProt O00519); assay: FAAH activity assay (Cayman Chemicals); type: biochemical; conditions: for Remaining FAAH Activity (33 μM): Table 3; for inhibition at 33 µM: 33 μM compound, compared to vehicle (0%); for inhibition of FAAH activity: graded concentrations up to 33 μM
T1 construct: purchased Cayman Chemicals
T1 sequence (O00519 1-579): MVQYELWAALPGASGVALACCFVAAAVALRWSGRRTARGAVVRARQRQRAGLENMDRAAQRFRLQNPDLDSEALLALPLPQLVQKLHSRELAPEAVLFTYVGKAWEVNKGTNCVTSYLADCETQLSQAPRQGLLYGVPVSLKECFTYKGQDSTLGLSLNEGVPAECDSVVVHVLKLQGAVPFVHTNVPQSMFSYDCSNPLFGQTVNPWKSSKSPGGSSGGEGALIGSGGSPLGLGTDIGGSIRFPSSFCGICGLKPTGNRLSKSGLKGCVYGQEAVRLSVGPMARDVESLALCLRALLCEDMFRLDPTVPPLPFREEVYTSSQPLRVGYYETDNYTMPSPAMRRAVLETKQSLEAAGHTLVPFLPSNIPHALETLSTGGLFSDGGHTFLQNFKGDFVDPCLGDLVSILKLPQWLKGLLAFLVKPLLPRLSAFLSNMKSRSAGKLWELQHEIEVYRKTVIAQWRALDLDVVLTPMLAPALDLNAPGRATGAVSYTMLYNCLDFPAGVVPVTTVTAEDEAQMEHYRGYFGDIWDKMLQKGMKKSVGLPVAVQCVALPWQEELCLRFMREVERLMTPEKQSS
Experimental: Concentration response curves were plotted for VU534 for the enzymes fatty acid amide hydrolase (FAAH) and soluble epoxide hydrolase (sEH).
The fluorescence interference assay was performed using the same method as the HTS assay, but with BODIPY-FL C5 (Thermo Fisher Scientific) used in place of PED-A1. sEH and FAAH activity assays were performed according to the manufacturer's specifications (Cayman Chemicals).

[2] = biological target: T2, NAPE-PLD activity of RAW264.7 macrophages (Mus musculus, UniProt Q8BH82); assay: Cell-based NAPE-PLD activity in RAW264.7 macrophages (PED-A1 with orlistat); conditions: for In-cell NAPE-PLD activity in RAW 264.7 (10 μM) with PED-A1 or flame-NAPE as substrate: Table 3; for 10 μM Mϕ % NAPE-PLD activity: Table 2, 10 μM compound, vehicle = 100%; for Emax, Nape-pld activity in RAW264.7 cells: FIG. 17A, PED-A1; for effect on NAPE-PLD activity in RAW264.7 cells: graded concentrations (FIG. 17A)
T2 construct: endogenous in cells; host or cells: RAW264.7
T2 sequence (Q8BH82 1-396): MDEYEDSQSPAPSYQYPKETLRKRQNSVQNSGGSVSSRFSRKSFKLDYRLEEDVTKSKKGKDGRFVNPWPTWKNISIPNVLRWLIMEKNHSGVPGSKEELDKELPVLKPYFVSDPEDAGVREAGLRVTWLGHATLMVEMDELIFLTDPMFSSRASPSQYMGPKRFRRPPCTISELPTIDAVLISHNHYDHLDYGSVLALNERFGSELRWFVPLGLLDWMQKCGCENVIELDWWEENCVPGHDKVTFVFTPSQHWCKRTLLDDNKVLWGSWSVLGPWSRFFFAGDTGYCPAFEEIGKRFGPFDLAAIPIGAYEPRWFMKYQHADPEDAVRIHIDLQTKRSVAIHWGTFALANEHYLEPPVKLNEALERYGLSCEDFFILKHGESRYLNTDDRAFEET
Experimental: (§1) NAPE-PLD activity was measured in cells as previously described, except that FluoroBrite DMEM (Gibco A1896701) was used as media. See Zarrow et al., J. Lipid Res. 63(1): 100156 (2022). For RAW264.7 assays, PED-A1 (3.6 μM final) was used as the substrate with 10 μM orlistat added to inhibit PLA1 activity, while for HepG2 cells, flame-NAPE was used (with no orlistat added).

[3] = system: HepG2 human hepatocytoma cells; assay: Cytotoxicity (MTT) in HepG2 cells; type: cell-based; conditions: for % HepG2 viability (33 μM): Table 3; for cytotoxicity in HepG2 cells: up to / at 30 μM
Experimental: Cytotoxicity was measured using MTT as previously described except that the studies used 96-well plates with 100 μL of 0.3 mg/mL MTT solution was added after 24 h of treatment and then replaced after 3 h with 0.1 M HCl in isopropanol. See Aggarwal et al., J. Biol. Chem. 295(21): 7289-7300 (2020). Viability was expressed as percent absorbance at 560 nm relative to vehicle controls.

[4] = biological target: T3, NAPE-PLD activity of HepG2 cells (Homo sapiens, UniProt Q6IQ20); assay: Cell-based NAPE-PLD activity in HepG2 cells (flame-NAPE); conditions: for In-cell NAPE-PLD activity in HepG2 (10 μM) with PED-A1 or flame-NAPE as substrate: Table 3; for Emax / EC50: HepG2 cells; for Emax: % maximal induced activity (Table 2, Example 7); for EC50: flame-NAPE (Table 2, Example 7); for effect on NAPE-PLD activity in HepG2 cells: graded concentrations
T3 construct: endogenous in cells; host or cells: HepG2
T3 sequence (Q6IQ20 whole entry): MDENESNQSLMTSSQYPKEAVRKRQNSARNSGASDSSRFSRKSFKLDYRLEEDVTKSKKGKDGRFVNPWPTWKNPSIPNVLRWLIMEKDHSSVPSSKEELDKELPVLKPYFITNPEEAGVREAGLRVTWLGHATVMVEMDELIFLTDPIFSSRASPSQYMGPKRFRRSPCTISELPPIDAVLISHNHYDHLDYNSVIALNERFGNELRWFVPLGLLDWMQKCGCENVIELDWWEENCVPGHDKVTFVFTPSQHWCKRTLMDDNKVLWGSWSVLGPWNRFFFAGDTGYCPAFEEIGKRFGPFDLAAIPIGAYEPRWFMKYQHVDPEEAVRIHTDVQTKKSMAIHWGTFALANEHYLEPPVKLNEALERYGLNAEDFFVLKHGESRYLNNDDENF
Experimental: In vitro models of the hepatic steatosis of non-alcoholic fatty liver disease (NAFLD) are well-established, with the primary method being incubation of primary human hepatocytes or hepatocyte cell lines such as HepG2, HuH7, HepaRG, with oleic acid and palmitic acid for 24 to 48 h, then measuring the resulting steatosis, lipid peroxidation, apoptosis, and inflammatory gene expression. Using flame-NAPE to measure NAPE-PLD activity in the human hepatoma HepG2 cell line, the experimental data confirmed that VU534 activated NAPE-PLD in human cells (AC50 940 nM; max % bA 155%). Bithionol (10 μM) reduced HepG2 flame-NAPE hydrolysis by >67%.
as §1

| Remaining FAAH Activity (33 μM) [1] [%] | In-cell NAPE-PLD activity in RAW 264.7 (10 μM) with PED-A1 or flame-NAPE as substrate [2] [%] | In-cell NAPE-PLD activity in HepG2 (10 μM) with PED-A1 or flame-NAPE as substrate [4] [%] | inhibition at 33 µM [1] [%] | 10 μM Mϕ % NAPE-PLD activity [2] [%] | Structure (SMILES) | % HepG2 viability (33 μM) [3] [%] | also measured |
| --- | --- | --- | --- | --- | --- | --- | --- |
| 97 | 102 | 125 |  |  | Cn1cc(S(=O)(=O)N2CCC(C(=O)Nc3nc4ccccc4s3)CC2)cn1 [VU227] | 66 |  |
| 90 | 107 |  | < 15 | 105 | Cc1ccc(S(=O)(=O)N2CCC(C(=O)Nc3nc4c(C)cc(C)cc4s3)CC2)cc1 [VU575] |  | Emax [4]: 145%; EC50 [4]: 3100 nM; effect on NAPE-PLD activity in HepG2 cells ([4]; flame-NAPE): enhances NAPE-PLD activity |
| 90 |  | 130 |  |  | O=C(Nc1nc2ccccc2s1)C1CCN(S(=O)(=O)c2ccc(F)c(Cl)c2)CC1 [VU233] | 69 | inhibition of FAAH activity [1]: only weak inhibition; effect on NAPE-PLD activity in RAW264.7 cells [2]: no significant effect; also recorded: not significant; cytotoxicity in HepG2 cells [3]: no cytotoxicity; EC50, NAPE-PLD activity of HepG2 cells ([4]; FIG. 18B, flame-NAPE): not calculable |
| 75 | 155 |  | 25 | 155 | Cc1cc2nc(NC(=O)C3CCN(S(=O)(=O)c4ccc(F)cc4)CC3)sc2cc1C [VU536] |  |  |
| 89 | 107 |  | < 15 | 105 | Cc1ccc2nc(NC(=O)C3CCN(S(=O)(=O)c4ccc(F)cc4)CC3)sc2c1 [VU486] |  |  |
| 90 | 123 |  | < 15 | 125 | Cc1ccc2sc(NC(=O)C3CCN(S(=O)(=O)c4ccc(F)cc4)CC3)nc2c1C [VU517] |  | Emax [4]: 185%; EC50 [4]: 8900 nM; effect on NAPE-PLD activity in HepG2 cells ([4]; flame-NAPE): enhances NAPE-PLD activity |

The next lines start with the compound.

| Structure (SMILES) | Remaining FAAH Activity (33 μM) [1] [%] | In-cell NAPE-PLD activity in RAW 264.7 (10 μM) with PED-A1 or flame-NAPE as substrate [2] [%] | In-cell NAPE-PLD activity in HepG2 (10 μM) with PED-A1 or flame-NAPE as substrate [4] [%] | inhibition at 33 µM [1] [%] | 10 μM Mϕ % NAPE-PLD activity [2] [%] | % HepG2 viability (33 μM) [3] [%] | also measured |
| --- | --- | --- | --- | --- | --- | --- | --- |
| Cc1cccc2sc(NC(=O)C3CCN(S(=O)(=O)c4ccc(F)c(Cl)c4)CC3)nc12 [VU209] | 88 | 136 | 206 |  |  | 73 |  |
| O=C(Nc1nc2ccccc2s1)C1CCN(S(=O)(=O)c2cccnc2)CC1 [VU203] | 79 |  | 122 |  |  | 41 |  |
| Cc1cccc2sc(NC(=O)C3CCN(S(=O)(=O)c4cccnc4)CC3)nc12 [MRJ-058C] |  |  |  | < 15 | 115 |  |  |
| Cc1cc(C)c2sc(NC(=O)C3CCN(S(=O)(=O)c4ccc(F)cc4)CC3)nc2c1 [VU534, N-(5,7-Dimethylbenzo[d]thiazol-2-yl)-1-((4-fluorophenyl)sulfonyl)piperidine-4-carboxamide] | 86 | 139 | 211 | < 15 | 140 | 91 | inhibition of FAAH activity [1]: no inhibition of FAAH; also recorded: only weak inhibition; also recorded: does not inhibit; Emax, Nape-pld activity in RAW264.7 cells [2]: 1.6 fold; effect on NAPE-PLD activity in RAW264.7 cells [2]: significantly increased NAPE-PLD activity; cytotoxicity in HepG2 cells [3]: minimal cytotoxicity; Emax, NAPE-PLD activity of HepG2 cells ([4]; FIG. 18B, flame-NAPE): 1.6 fold; AC50 ([4]; HepG2, flame-NAPE (Example 7)): 940 nM; max % bA in HepG2 cells ([4]; HepG2, flame-NAPE (Example 7)): 155%; Emax [4]: 145%; EC50 [4]: 2400 nM; effect on NAPE-PLD activity in HepG2 cells ([4]; flame-NAPE): increased NAPE-PLD activity; also recorded: enhances NAPE-PLD activity |
| Cc1cccc2sc(NC(=O)C3CCN(S(=O)(=O)c4cnn(C)c4)CC3)nc12 [VU210] | 89 | 98 | 124 |  |  | 67 |  |
| Cc1cccc2sc(NC(=O)C3CCN(S(=O)(=O)c4cccnc4)CC3)nc12 [VU211] | 86 | 114 | 148 |  |  | 72 |  |
| Cc1cccc2sc(NC(=O)C3CCN(S(=O)(=O)c4ccc(F)c(Cl)c4)CC3)nc12 [MRJ-058B] |  |  |  | < 15 | 135 |  |  |
| Cc1ccc(C)c2sc(NC(=O)C3CCN(S(=O)(=O)c4ccc(F)cc4)CC3)nc12 [VU533] |  |  |  |  |  |  | inhibition of FAAH activity [1]: only weak inhibition; Emax, Nape-pld activity in RAW264.7 cells [2]: 2.2 fold; effect on NAPE-PLD activity in RAW264.7 cells [2]: significantly increased NAPE-PLD activity; cytotoxicity in HepG2 cells [3]: no cytotoxicity; Emax, NAPE-PLD activity of HepG2 cells ([4]; FIG. 18B, flame-NAPE): 1.6 fold; effect on NAPE-PLD activity in HepG2 cells ([4]; flame-NAPE): increased NAPE-PLD activity |
| Cc1cccc2sc(NC(=O)C3CCN(S(=O)(=O)c4cnn(C)c4)CC3)nc12 [MRJ-058D] |  |  |  | < 15 | 100 |  |  |
